Assay [1] deals with T1, PAR2 (HT-29 cells, SLIGKV activation) (Homo sapiens, UniProt P55085).
T1 construct: host or cells: HT-29 cells
T1 sequence (P55085 26-397): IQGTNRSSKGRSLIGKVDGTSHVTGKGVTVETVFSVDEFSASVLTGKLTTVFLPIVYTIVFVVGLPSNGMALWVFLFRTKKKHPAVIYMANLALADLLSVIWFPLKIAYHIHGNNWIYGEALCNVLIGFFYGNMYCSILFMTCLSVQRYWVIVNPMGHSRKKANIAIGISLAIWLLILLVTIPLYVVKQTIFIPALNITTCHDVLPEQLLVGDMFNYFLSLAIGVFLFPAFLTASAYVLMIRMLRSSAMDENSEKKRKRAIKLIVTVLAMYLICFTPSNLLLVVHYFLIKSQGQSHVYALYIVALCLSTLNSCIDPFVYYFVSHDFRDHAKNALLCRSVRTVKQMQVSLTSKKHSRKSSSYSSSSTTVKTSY
Put plainly: Ca FLIPR TETRA assay, ANTAGONIST mode, stimulation with 8 μM SLIGKV. The conditions noted are these: for IC50: HT-29 cells, stimulation with 8 μM SLIGKV. Type of assay: cell-based. A digest of the protocol: (§1)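 Antagonist-mode FLIPR Tetra Ca2+ readout: after 30 min r.t. compound pre-incubation, HT-29 cells are challenged with trypsin (3.1 U/mL final), SLIGKV (8 μM), thrombin (1 U/mL) or UTP (0.6 μM). Cells were plated overnight in 1% FBS medium and dye-loaded with Calcium 5; an initial read checks compound agonism.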

For assay [2], the target named is T2, PAR2 (HT-29 cells, trypsin activation) (Homo sapiens, UniProt P55085).
T2 construct: host or cells: HT-29 cells
T2 sequence (P55085 26-397): T1 sequence (P55085 26-397)
Put plainly: Ca FLIPR TETRA assay, ANTAGONIST mode, stimulation with 3.1 U/mL trypsin. Type of assay: cell-based. The conditions noted are these: HT-29 cells, stimulation with 3.1 U/mL trypsin. The procedure, abridged: as §1

Assay [3] has as its system Thrombin-stimulated Ca2+ response in HT-29 cells. Put plainly: Ca FLIPR TETRA assay, ANTAGONIST mode, stimulation with 1 U/mL Thrombin. Type of assay: cell-based, human. The conditions noted are these: for IC50: Homo sapiens, HT-29 cells, stimulation with 1 U/mL Thrombin. The procedure, abridged:
as §1

For assay [4], the system named is UTP-stimulated Ca2+ response in HT-29 cells. Put plainly: Ca FLIPR TETRA assay, ANTAGONIST mode, stimulation with 0.6 μM UTP. Type of assay: cell-based, human. The conditions noted are these: for IC50: Homo sapiens, HT-29 cells, stimulation with 0.6 μM UTP. The procedure, abridged: as §1

Where only a bound is given, the exact number is not on record here.

By IC50 is commonly meant the concentration that inhibits the measured activity by half. For `O=C(c1cn2nc(-c3ccc(F)cc3)cc(C(F)(F)F)c2n1)N1CCCCC1c1ccccc1` (stereo not shown) [Compound I-71], the 50% inhibitory concentration (IC50) in assay [1] is 950 nM; in assay [2] it was 680 nM; in assay [3], 43000 nM; in assay [4] it was > 50000 nM.

For `Cc1noc(C2CCCCN2C(=O)c2cn3nc(-c4ccc(F)cc4)cc(C(F)(F)F)c3n2)n1` (stereo not shown) [Compound I-72], the IC50 in assay [1] was 1400 nM; in assay [2], 1500 nM; in assay [3], 50000 nM; in assay [4], > 50000 nM.

With `CCOC(=O)[C@@H]1CCCN(C(=O)c2cn3nc(-c4ccc(F)cc4)cc(C(F)(F)F)c3n2)[C@@H]1C` [Compound I-75], the IC50 in assay [1] turned out to be 1100 nM; in assay [2], 1200 nM; in assay [3] it was 1600 nM; in assay [4] it was 2200 nM.

Take `CCOC(=O)[C@H]1CCCN(C(=O)c2cn3nc(-c4ccc(F)cc4)cc(C(F)(F)F)c3n2)[C@@H]1C` [Compound I-76]: the IC50 in assay [1] was 3300 nM; in assay [2] it was 4800 nM; in assay [3] it was 5500 nM; in assay [4] it was 4400 nM.

Consider `O=C(c1cn2nc(-c3ccc(F)cc3)cc(C(F)(F)F)c2n1)N1CCCCC1c1ccn[nH]1` (stereo not shown) [Compound I-78], for which the 50% inhibitory concentration (IC50) in assay [1] turned out to be 510 nM; in assay [2], 1600 nM; in assay [3], 4100 nM; in assay [4], 4500 nM.

In the case of `O=C(c1cn2nc(-c3ccc(F)cc3)cc(C(F)(F)F)c2n1)N1CCCCC1c1ccccn1` (stereo not shown) [Compound I-79], the IC50 in assay [1] came out at 1300 nM; in assay [2], 1700 nM; in assay [3], 2000 nM; in assay [4] it was 3000 nM.

Regarding `O=C(c1cn2nc(-c3ccc(F)cc3)cc(C(F)(F)F)c2n1)N1CCC(n2cc(-c3ccccc3)[nH]c2=O)CC1` [Compound I-80], the half-inhibitory concentration (IC50) was 54 nM in assay [1], 82 nM in assay [2], > 5000 nM in assay [3] and > 5000 nM in assay [4].

Turning to `NC(=O)C1CCCCN1C(=O)c1cn2nc(-c3ccc(F)cc3)cc(C(F)(F)F)c2n1` (stereo not shown) [Compound I-81], the IC50 came to 6700 nM in assay [1], 12000 nM in assay [2], 9200 nM in assay [3] and 17000 nM in assay [4].

For the compound `C[C@H]1CN(C(=O)c2cn3nc(-c4ccc(F)cc4)cc(C(F)(F)F)c3n2)CCN1C(=O)OCC(C)(C)C` [Compound I-82], the half-maximal inhibitory concentration (IC50) worked out at 22 nM in assay [1], 100 nM in assay [2], 14000 nM in assay [3] and 22000 nM in assay [4].

As to `C[C@H]1CN(C(=O)c2cn3nc(-c4ccc(F)cc4)cc(C(F)(F)F)c3n2)CCN1C(=O)Oc1ccccc1` [Compound I-83], the “SLIGKV % @ concentration” value in assay [1] (@ 0.069 (μM)) is recorded as 46% @ 0.069. The half-maximal inhibitory concentration (IC50) in assay [2], in assay [3] and in assay [4] was > 50000 nM in each case.

Consider `CC(C)(C)OC(=O)N1CCCN(C(=O)c2cn3nc(-c4ccc(F)cc4)cc(C(F)(F)F)c3n2)CC1` [Compound I-84], for which the concentration for half-maximal inhibition (IC50) stood at 790 nM in assay [1], 1800 nM in assay [2], 6400 nM in assay [3] and 5100 nM in assay [4].

Regarding `C[C@H]1CN(C(=O)c2cn3nc(-c4ccc(F)cc4)cc(C(F)(F)F)c3n2)CCN1C(=O)[C@@H]1CCCO1` [Compound I-85], the IC50 in assay [1] was 1600 nM; in assay [2], 10000 nM; in assay [3], 49000 nM; in assay [4], 40000 nM.

`C[C@H]1CN(C(=O)c2cn3nc(-c4ccc(F)cc4)cc(C(F)(F)F)c3n2)CCN1C(=O)C1CCCCC1` [Compound I-86]: the IC50 was 78 nM in assay [1], 600 nM in assay [2], 35000 nM in assay [3] and 37000 nM in assay [4].

Regarding `C[C@H]1CN(C(=O)c2cn3nc(-c4ccc(F)cc4)cc(C(F)(F)F)c3n2)CCN1C(=O)c1ccccc1` [Compound I-89], the 50% inhibitory concentration (IC50) is 270 nM in assay [1], 900 nM in assay [2], > 50000 nM in assay [3] and > 50000 nM in assay [4].

In the case of `C[C@H]1CN(C(=O)c2cn3nc(-c4ccc(F)cc4)cc(C(F)(F)F)c3n2)CCN1C(=O)Cc1ccccc1` [Compound I-90], the IC50 is 15 nM in assay [1], 44 nM in assay [2], > 5000 nM in assay [3] and > 5000 nM in assay [4].

For the compound `CC(C)C(O)C(=O)N1CCN(C(=O)c2cn3nc(-c4ccc(F)cc4)cc(C(F)(F)F)c3n2)C[C@@H]1C` (stereo partly shown) [Compound I-91], the IC50 was 69 nM in assay [1], 1500 nM in assay [2], 26000 nM in assay [3] and 20000 nM in assay [4].

Consider `C[C@H]1CN(C(=O)c2cn3nc(-c4ccc(F)cc4)cc(C(F)(F)F)c3n2)CCN1C(=O)C(O)Cc1ccccc1` (stereo partly shown) [Compound I-92], for which the 50% inhibitory concentration (IC50) in assay [1] was 10 nM; in assay [2] it was 15 nM; in assay [3], > 5000 nM; in assay [4], > 5000 nM.

For the compound `CC1CN(C(=O)c2cn3nc(-c4ccc(F)cc4)cc(C(F)(F)F)c3n2)CCCN1C(=O)OC(C)(C)C` (stereo not shown) [Compound I-94], the half-inhibitory concentration (IC50) in assay [1] was 3600 nM; in assay [2] it was 12000 nM; in assay [3] it was > 50000 nM; in assay [4] it was > 50000 nM.

Consider `CNC(=O)[C@@H]1CCN(C(=O)c2cn3nc(-c4ccc(F)cc4)cc(C(F)(F)F)c3n2)C[C@@H]1C` [Compound I-95], for which the IC50 in assay [1] is 1600 nM; in assay [2], 7200 nM; in assay [3], > 50000 nM; in assay [4], 43000 nM.

With `CC(C)c1cc(-c2ccc(F)cc2)nn2cc(C(=O)N3CCN(C(=O)OC(C)(C)C)[C@@H](C)C3)nc12` [Compound I-96], the IC50 in assay [1] worked out at 44 nM; in assay [2] it was 150 nM. In addition, the “Thrombin % @ concentration” value in assay [3] (@ 50 (μM)) came out at 52% @ 50. The “UTP % @ concentration” value in assay [4] (@ 50 (μM)) is 66% @ 50.

With `CC(C)c1cc(-c2ccc(F)cc2)nn2cc(C(=O)N3CCN(C(=O)[C@H](O)CC(C)(C)C)[C@@H](C)C3)nc12` [Compound I-97], the IC50 in assay [1] is 0.7 nM; in assay [2], 0.6 nM; in assay [3], > 5000 nM; in assay [4], > 5000 nM.

As for `C=C(C)c1cc(-c2ccc(F)cc2)nn2cc(C(=O)N3CCN(C(=O)[C@H](O)CC(C)(C)C)[C@@H](C)C3)nc12` [Compound I-99], the half-inhibitory concentration (IC50) is 3 nM in assay [1], 10 nM in assay [2], > 50000 nM in assay [3] and > 50000 nM in assay [4].

In the case of `C[C@H]1CN(C(=O)c2cn3nc(-c4ccc(F)cc4)cc(C(F)(F)F)c3n2)CCN1C(=O)C(O)c1cccnc1` (stereo partly shown) [Compound I-100], the IC50 in assay [1] came to 200 nM; in assay [2], 3000 nM; in assay [3], 43000 nM; in assay [4], 48000 nM.

On to `CC(C)c1cc(-c2ccc(F)cc2)nn2cc(C(=O)N3CCN(C(=O)C(O)c4cccnc4)[C@@H](C)C3)nc12` (stereo partly shown) [Compound I-101], for which the IC50 was 7 nM in assay [1], 1400 nM in assay [2], 27000 nM in assay [3] and 30000 nM in assay [4].

Turning to `Cc1cc(-c2ccc(F)cc2)nn2cc(C(=O)N3CCN(C(=O)[C@H](O)CC(C)(C)C)CC3(C)C)nc12` [Compound I-102], the 50% inhibitory concentration (IC50) in assay [1] came to 3 nM; in assay [2] it was 8 nM; in assay [3] it was 17000 nM; in assay [4] it was 23000 nM.

Turning to `CC(C)c1cc(-c2ccc(F)cc2)nn2cc(C(=O)N3CCN(C(=O)[C@H](O)CC(C)(C)C)CC3(C)C)nc12` [Compound I-103], the IC50 in assay [1] is 0.4 nM; in assay [2], 0.9 nM; in assay [3], > 5000 nM; in assay [4], > 5000 nM.

On to `CCc1cc(-c2ccc(F)cc2)nn2cc(C(=O)N3CCN(C(=O)[C@H](O)CC(C)(C)C)[C@@H](C)C3)nc12` [Compound I-104], for which the IC50 in assay [1] was 2 nM; in assay [2], 7 nM; in assay [3], 15000 nM; in assay [4] it was 12000 nM.

Consider `CC(C)C[C@@H](O)C(=O)N1CCN(C(=O)c2cn3nc(-c4ccc(F)cc4)cc(C(C)C)c3n2)C[C@@H]1C` [Compound I-105], for which the concentration for half-maximal inhibition (IC50) was 0.4 nM in assay [1], 0.8 nM in assay [2], 10000 nM in assay [3] and 8800 nM in assay [4].

Consider `CC(C)c1cc(-c2ccc(F)cc2)nn2cc(C(=O)N3CCN(C(=O)[C@H](O)c4ccccc4Cl)[C@@H](C)C3)nc12` [Compound I-106], for which the half-maximal inhibitory concentration (IC50) in assay [1] was 0.6 nM; in assay [2], 1 nM; in assay [3], > 5000 nM; in assay [4] it was > 5000 nM.

`CCCCC(O)C(=O)N1CCN(C(=O)c2cn3nc(-c4ccc(F)cc4)cc(C(C)C)c3n2)C[C@@H]1C` (stereo partly shown) [Compound I-107]: the half-maximal inhibitory concentration (IC50) was 1 nM in assay [1], 4 nM in assay [2], 10000 nM in assay [3] and 9600 nM in assay [4].

For the compound `CC(C)c1cc(-c2ccc(F)cc2)nn2cc(C(=O)N3CCN(C(=O)C(O)c4ccc(F)cc4)[C@@H](C)C3)nc12` (stereo partly shown) [Compound I-108], the IC50 in assay [1] was 0.7 nM; in assay [2] it was 0.7 nM; in assay [3] it was 8300 nM; in assay [4], 16000 nM.
